Earlier results, collected in patent US20090202630A1, “ORALLY DISINTEGRATING TABLET COMPOSITIONS OF RANITIDINE AND METHODS OF MANUFACTURE” (priority 2008, published 2009).
Counter-ions that a name gives are not always drawn.

solubility in water (in words): freely soluble
Structure (SMILES): CNC(=C[N+](=O)[O-])NCCSCc1ccc(CN(C)C)o1 [Ranitidine hydrochloride]
